Data on six molecules can be found in ChEMBL document CHEMBL4814030, “Optimization of ether and aniline based inhibitors of lactate dehydrogenase” (Bioorg Med Chem Lett, 2021).

In brackets after ≈: the same amount, converted by molar mass. Where only a bound is given, the exact number is not on record here.

In data set [1] the target is T1, L-lactate dehydrogenase A chain (Homo sapiens, UniProt P00338). Description: Binding affinity to LDHA (unknown origin) by SPR analysis. In general terms: SPR reads the build-up and loss of mass on a sensor chip optically.
Data set [2] addresses T1, L-lactate dehydrogenase A chain. Description: Inhibition of recombinant human LDHA using sodium pyruvate as substrate preincubated for 5 mins followed by diaphorase/resazurin addition and measured after 20 mins by fluorescence based assay.
Data set [3] in a line: Metabolic stability in rat microsomes assessed as half life. Type of data set: ADME, Microsome.
The nature of data set [4]: Permeability of compound by PAMPA. Type of data set: ADME. Particulars: read-out: permeability. On the technique in general: In PAMPA a lipid-coated filter parts donor from acceptor wells.
The next data set relates to MIA PaCa-2. Put plainly: Cytotoxicity against human MIA PaCa-2 cells assessed as reduction in cell viability incubated for 48 hrs by cell titer glo assay. Type of data set: functional, cell-based. To be noted: MIA PaCa-2, 48 h. On the technique in general: ATP-based viability assays read luminescence as a measure of living cells.
Data set [5] has as its target T1, L-lactate dehydrogenase A chain. Put plainly: Inhibition of LDHA in human MIA PaCa2 cells assessed as reduction in lactate production incubated for 2 hrs by fluorescence based assay. Type of data set: cell-based, MIA PaCa-2.
Data set [6] is described as follows: Kinetic solubility of compound. Type of data set: physicochemical. To be noted: read-out: Kinetic_solubility.
In a further data set the test system is A673. Description: Cytotoxicity against human A673 cells assessed as reduction in cell viability incubated for 48 hrs by cell titer glo assay. Particulars: A673, 48 h. Type of data set: functional, cell-based.
The target in data set [7] is T1, L-lactate dehydrogenase A chain. Description: Inhibition of LDHA in human A673 cells assessed as reduction in lactate production incubated for 2 hrs by fluorescence based assay. It counts as cell-based.

Take `NS(=O)(=O)c1ccc(Cc2c(-c3cccc(OCc4ccccc4)c3)nn(-c3nc(C(=O)O)cs3)c2CC2CC2)cc1F`: the Kd in data set [1] is 0.016 nM. The IC50 in data set [2] is 19 nM; with MIA PaCa-2 it was 1400 nM; in data set [5] it was 690 nM; in the data set on A673, 420 nM; in data set [7], 590 nM. In addition, in data set [3], the t1/2 is listed as 2.8 min. Also, in [4], the Papp was determined as 11 nm/s. For the same molecule, the solubility kinetic in [6] came out at 0.0724 mg/mL (≈ 117 µM).

Consider `NS(=O)(=O)c1ccc(Cc2c(-c3cccc(N4CCOCC4)c3)nn(-c3nc(C(=O)O)cs3)c2CC2CC2)cc1F`, for which, in [1], the Kd worked out at 0.44 nM. In addition, the IC50 in [2] is 27 nM; with MIA PaCa-2, 18700 nM; in data set [5] it was 23400 nM; with A673, 20400 nM; in data set [7] it was 9400 nM. Moreover, in [3], the t1/2 is above 30 min. In [4], the Papp worked out at 16 nm/s. The solubility kinetic in data set [6] is above 0.088 mg/mL.

`NS(=O)(=O)c1ccc(Cc2c(-c3cccc(Nc4ccccc4)c3)nn(-c3nc(C(=O)O)cs3)c2CC2CC2)cc1` displayed a Kd in data set [1] of 1.5 nM. Also, the IC50 in data set [2] came out at 314 nM; in the data set on MIA PaCa-2 it was 21200 nM; in [5], 6700 nM; with A673, 34500 nM; in data set [7] it was 3100 nM. The t1/2 in data set [3] is 6 min. Further, in data set [4], the Papp came out at 44 nm/s. In addition, the solubility kinetic in data set [6] amounted to 0.0493 mg/mL (≈ 84.2 µM).

As to `NS(=O)(=O)c1ccc(Cc2c(-c3ccc(F)c(OCc4ccc(C(F)(F)F)o4)c3)nn(-c3nc(C(=O)O)cs3)c2CC2CC2)cc1F`, the affinity in data set [1], expressed as Kd, was 0.001 nM. Besides, the IC50 in data set [2] came out at 23 nM; in the data set on MIA PaCa-2, 2100 nM; in [5], 1000 nM; in the data set with A673, 440 nM; in data set [7], 1100 nM. Besides, the t1/2 in [3] was above 30 min. For the same molecule, the Papp in data set [4] came out at 120 nm/s. Further, the solubility kinetic in data set [6] was determined as 0.0532 mg/mL (≈ 76.6 µM).

In [1], `NS(=O)(=O)c1ccc(Cc2c(-c3ccc(F)c(OCC4CC4(F)F)c3)nn(-c3nc(C(=O)O)cs3)c2CC2CC2)cc1F` (centres undefined) showed a Kd of 0.008 nM. For the same molecule, the IC50 in data set [2] came to 5 nM; in the data set with MIA PaCa-2, 2400 nM; in data set [5], 1400 nM; in the data set on A673, 900 nM; in data set [7], 1100 nM. In data set [3], the t1/2 is given as above 30 min. Also, the Papp in data set [4] was found to be 49 nm/s. Further, in [6], the solubility kinetic was determined as 0.0761 mg/mL (≈ 120 µM).

For `Cc1ccc(Oc2cc(-c3nn(-c4nc(C(=O)O)cs4)c(CC4CC4)c3Cc3ccc(S(N)(=O)=O)c(F)c3)ccc2F)cc1`, in [1], the Kd was determined as 1.1 nM. Moreover, the IC50 in [2] is 26 nM; in the data set on MIA PaCa-2, 2100 nM; in data set [5] it was 870 nM; in the data set with A673, 550 nM; in data set [7], 550 nM. The t1/2 in [3] is reported as 6.2 min. Also, in [4], the Papp stood at 130 nm/s. The solubility kinetic in data set [6] worked out at 0.024 mg/mL (≈ 37.7 µM).

Broadly, the Kd is the free concentration of one partner at which half of the binding sites on the other are occupied at equilibrium, for simple one-to-one binding. A low value points to a tighter complex. The term IC50 denotes the concentration at which inhibition is half-maximal.
